{
  "source": "paper PMC12586182",
  "about": "(Frontiers in Oncology, 2025)",
  "assay_in_all_cases": "Cell viability assay (ATPlite)",
  "assay_type_in_all_cases": "cell-based",
  "key": {"[1]": {"tested_on": "BxPC-3", "details": "Homo sapiens; BxPC-3 cell line, 72 hours incubation", "in_short": "(§1)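 Cells grew 24 h, then received 9-point √10-fold compound series in duplicate (0.4% DMSO final) for 72 h. ATP content was read by ATPlite luminescence and normalized to vehicle controls as % viability. IC50 came from a four-parameter logistic fit; curves with F-value above 1.5 were invalidated, with IC50 then set at the top concentration.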"}, "[2]": {"tested_on": "CTV-1", "details": "Homo sapiens; CTV-1 cell line, 72 hours incubation", "in_short": "as §1"}, "[3]": {"tested_on": "HL-60", "details": "Homo sapiens; HL-60 cell line, 72 hours incubation", "in_short": "as §1"}, "[4]": {"tested_on": "UM-UC-3", "details": "Homo sapiens, UMUC3; UM-UC-3 cell line, 72 hours incubation", "in_short": "as §1"}, "[5]": {"tested_on": "SW1573", "details": "Homo sapiens; SW1573 cell line, 72 hours incubation", "in_short": "as §1"}, "[6]": {"tested_on": "769-P", "details": "Homo sapiens; 769-P cell line, 72 hours incubation", "in_short": "as §1"}, "[7]": {"tested_on": "HCT 15", "details": "Homo sapiens; HCT 15 cell line, 72 hours incubation", "in_short": "as §1"}, "[8]": {"tested_on": "MSTO-211H", "details": "Homo sapiens; MSTO-211H cell line, 72 hours incubation", "in_short": "as §1"}, "[9]": {"tested_on": "J82", "details": "Homo sapiens; J82 cell line, 72 hours incubation", "in_short": "as §1"}, "[10]": {"tested_on": "SK-BR-3", "details": "Homo sapiens; SK-BR-3 cell line, 72 hours incubation", "in_short": "as §1"}, "[11]": {"tested_on": "HCC827", "details": "Homo sapiens; HCC827 cell line, 72 hours incubation", "in_short": "as §1"}, "[12]": {"tested_on": "MOLM-13", "details": "Homo sapiens; MOLM-13 cell line, 72 hours incubation", "in_short": "as §1"}, "[13]": {"tested_on": "BT-474", "details": "Homo sapiens; BT-474 cell line, 72 hours incubation", "in_short": "as §1"}, "[14]": {"tested_on": "NCI-H2172", "details": "Homo sapiens; NCI-H2172 cell line, 72 hours incubation", "in_short": "as §1"}, "[15]": {"tested_on": "RS4;11", "details": "Homo sapiens; RS4;11 cell line, 72 hours incubation", "in_short": "as §1"}, "[16]": {"tested_on": "EoL-1", "details": "Homo sapiens, EOL1; EoL-1 cell line, 72 hours incubation", "in_short": "as §1"}, "[17]": {"tested_on": "THP-1", "details": "Homo sapiens; THP-1 cell line, 72 hours incubation", "in_short": "as §1"}, "[18]": {"tested_on": "SNU-16", "details": "Homo sapiens; SNU-16 cell line, 72 hours incubation", "in_short": "as §1"}, "[19]": {"tested_on": "HEC-1-B", "details": "Homo sapiens; HEC-1-B cell line, 72 hours incubation", "in_short": "as §1"}, "[20]": {"tested_on": "PFSK-1", "details": "Homo sapiens; PFSK-1 cell line, 72 hours incubation", "in_short": "as §1"}, "[21]": {"tested_on": "DoHH2", "details": "Homo sapiens, DOHH-2; DoHH2 cell line, 72 hours incubation", "in_short": "as §1"}, "[22]": {"tested_on": "A-673", "details": "Homo sapiens, A673; A-673 cell line, 72 hours incubation", "in_short": "as §1"}, "[23]": {"tested_on": "DLD-1", "details": "Homo sapiens; DLD-1 cell line, 72 hours incubation", "in_short": "as §1"}, "[24]": {"tested_on": "DU145", "details": "Homo sapiens, DU-145; DU145 cell line, 72 hours incubation", "in_short": "as §1"}, "[25]": {"tested_on": "COLO 205", "details": "Homo sapiens; COLO 205 cell line, 72 hours incubation", "in_short": "as §1"}, "[26]": {"tested_on": "MDA-MB-231", "details": "Homo sapiens; MDA-MB-231 cell line, 72 hours incubation", "in_short": "as §1"}, "[27]": {"tested_on": "MG-63", "details": "Homo sapiens; MG-63 cell line, 72 hours incubation", "in_short": "as §1"}, "[28]": {"tested_on": "HT-1080", "details": "Homo sapiens; HT-1080 cell line, 72 hours incubation", "in_short": "as §1"}, "[29]": {"tested_on": "NCI-H82", "details": "Homo sapiens; NCI-H82 cell line, 72 hours incubation", "in_short": "as §1"}, "[30]": {"tested_on": "H9", "details": "Homo sapiens; H9 cell line, 72 hours incubation", "in_short": "as §1"}, "[31]": {"tested_on": "HEC-1", "details": "Homo sapiens; HEC-1 cell line, 72 hours incubation", "in_short": "as §1"}},
  "note": "pIC50: −log10 of the molar value.",
  "data": [
    {"molecule": "O=C(c1ccc(Oc2ccccc2)cc1Cl)c1c[nH]c2ncnc(N[C@@H]3CC[C@@H](CO)OC3)c12", "note": "[nemtabrutinib]", "values": [
      {"measurement": "pIC50", "setting": "[1]", "value": 5.58},
      {"measurement": "pIC50", "setting": "[2]", "value": 6.15},
      {"measurement": "pIC50", "setting": "[3]", "value": 5.66},
      {"measurement": "pIC50", "setting": "[4]", "value": 5.27},
      {"measurement": "pIC50", "setting": "[5]", "value": 5.20},
      {"measurement": "pIC50", "setting": "[6]", "value": 5.40},
      {"measurement": "pIC50", "setting": "[7]", "value": 5.24},
      {"measurement": "pIC50", "setting": "[8]", "value": 5.41},
      {"measurement": "pIC50", "setting": "[9]", "value": 5.10},
      {"measurement": "pIC50", "setting": "[10]", "value": 5.73},
      {"measurement": "pIC50", "setting": "[11]", "value": 5.33},
      {"measurement": "pIC50", "setting": "[12]", "value": 6.00},
      {"measurement": "pIC50", "setting": "[13]", "value": 5.51},
      {"measurement": "pIC50", "setting": "[14]", "value": 6.35},
      {"measurement": "pIC50", "setting": "[15]", "value": 5.11},
      {"measurement": "pIC50", "setting": "[16]", "value": 7.23},
      {"measurement": "pIC50", "setting": "[17]", "value": 5.81},
      {"measurement": "pIC50", "setting": "[18]", "value": 5.74},
      {"measurement": "pIC50", "setting": "[19]", "value": 6.42},
      {"measurement": "pIC50", "setting": "[20]", "value": 4.95},
      {"measurement": "pIC50", "setting": "[21]", "value": 6.31},
      {"measurement": "pIC50", "setting": "[22]", "value": 5.44},
      {"measurement": "pIC50", "setting": "[23]", "value": 5.34},
      {"measurement": "pIC50", "setting": "[24]", "value": 5.78},
      {"measurement": "pIC50", "setting": "[25]", "value": 6.18},
      {"measurement": "pIC50", "setting": "[26]", "value": 5.59},
      {"measurement": "pIC50", "setting": "[27]", "value": 5.24},
      {"measurement": "pIC50", "setting": "[28]", "value": 5.32},
      {"measurement": "pIC50", "setting": "[29]", "value": 4.91},
      {"measurement": "pIC50", "setting": "[30]", "value": 5.88},
      {"measurement": "pIC50", "setting": "[31]", "value": 5.34}
    ]}
  ]
}
